Measured values taken from US20220340983A1, “SYSTEMS AND ASSAYS FOR IDENTIFYING PU.1 INHIBITORS” (Massachustts Institute of Technology, priority 2019, published 2022).

Assays:
iPSC-microglia [1] = test: Morphology of IFN-gamma activated iPSC-microglia; assay type: cell-based, human; details: IFN-gamma 25 ng/mL 3 days, co-treated with A11 2.5 μM 2 days
Procedure: (§1) FIGS. 10A-10D show anti-inflammatory properties of A11 after IFNγ treatment on human induced pluripotent stem cell derived microglia. Cell viability is shown in FIG. 10A as measured with CellTiter Glo (Promega) in untreated (vehicle), A11 (2.5 μM) treated, IFNγ (25 ng/mL) treated and A11 +IFNγ treated cells. The morphology (round represent un-activated and elongated, filamentous represent activated by IFNγ) of these same conditions is shown in FIGS. 10B and quantified in FIG. 10C.
(§2) Human induced pluripotent stem cell derived microglia (iPSC-microglia) were activated with IFN-gamma (25 ng/mL, 3 days) and co-treated with A11 (2.5 μM, 2 days).

iPS and ES-microglia [2] = test: Intracellular neutral lipid accumulation (BODIPY staining) in microglia; assay type: cell-based, human
Procedure: (§3) Top row: Effect of a 2-day treatment with DPBS (10 μL/mL), IFNγ (25 ng/mL), TNFα (25 ng/mL), TGFβ (25 ng/mL), IL1β (25 ng/mL), LPS (25 ng/mL), ATP (100 nM), CD200 (100 ng/mL), IFNα (25 ng/mL), IL12 (5 ng/mL), CX3CL1 (100 ng/mL), CCL5 (100 ng/mL), PMA (10 ng/mL), IFNβ (10 ng/mL), IL33 (10 ng/mL), and IL4 (100 ng/mL). n=52 for DPBS, n=9 for all other inflammatory molecules, except IL33 where n=3. Bottom row: effect after co-application with A11 (20 nM). Scale bar 10 μm. […] Student's unpaired, two sided t-test, ****P≤0.0001, ***P≤0.001, **P≤0.01, *P≤0.05. […] Top row: An increase in number of cells per well with ≥2 BODIPY-positive structures was observed after a 2-day treatment with IFNγ (25 ng/mL), TNFα (25 ng/mL) and IL33 (10 ng/mL) as compared to DPBS treatment. […] Student's unpaired, two-sided t-test, ***P≤0.001, **P≤0.01, *P≤0.05. […] A 2-day treatment with IFNγ (25 ng/mL) caused increase in ATP levels that was reversed by A11 (20 nM) treatment in iPS (left panel) and ES-microglia (right panel). Student's unpaired, twosided t-test, **P≤0.01. […]
(§4) FIGS. 17A-17H show results from comparing the effects of multiple inflammatory molecules in iPS-microglia. […] Quantification based on total Vybrant DiI-positive surface area divided by number of Hoechst positive cells per field of view. […]

[3] = system: PU.1 dependent gene expression; test: RT-qPCR of mRNA levels in BV2 PU.1-Luciferase cells (validation round 3); assay type: cell-based, mouse; details: 2-day treatment
iPSC-microglia [4] = test: Uptake of pHrodo-GFP-labelled mouse myelin particles in iPSC-microglia; assay type: cell-based, human; details: concentration response curve, after 48 h
Procedure: FIGS. 12A-12B show the effects of A11 on cell viability and myelin uptake after 48 h.
(§5) A concentration response curve was performed for cell viability and myelin uptake (FIG. 12A) in iPSC-microglia. Myelin uptake was measured by uptake of pHrodo-GFP-labelled wild-type mouse myelin particles (FIG. 12B). […] The IC50s obtained for these assays was in the low nM range, matching the data obtained in BV2 cells.

iPS and ES-microglia [5] = test: ELISA for IL1β in microglia supernatant; assay type: cell-based, human
iPSC-microglia [6] = test: mRNA expression (RTqPCR) in IFN-gamma activated iPSC-microglia; assay type: cell-based, human; details: IFN-gamma 25 ng/mL 3 days, co-treated with A11 2.5 μM 2 days
Procedure: as §1, §2

iPS and ES-microglia [7] = test: Average cell size (Vybrant DiI-positive surface area per Hoechst-positive cell) in microglia; assay type: cell-based, human; details: A11 alone ≤20 nM
Procedure: as §3, §4

iPSC-microglia [8] = test: Cell viability in iPSC-microglia; assay type: cell-based, human
Procedure: as §1, §2, §5

[9] = concentration response curve, iPSC-microglia, after 48 h

In the case of `O=S(=O)(NCc1ccncc1)c1ccc(C2CCCCC2)cc1` [Compound A11], the “morphology induced by IFN-gamma” value (iPSC-microglia [1]) was “reversal of the elongated and filamentous morphology induced by IFN-gamma”, the “number of cells containing ≥2 BODIPY-positive structures” value (iPS and ES-microglia [2]; A11 alone <20 nM, iPS and ES-microglia) was “no effect” and the “number of cells with ≥2 BODIPY-positive structures, increase by inflammatory molecules” value (iPS and ES-microglia [2]; iPS-microglia, 2-day treatment with IFNγ, TNFα or IL33 plus A11) was “reversed this increase”. For the same molecule, the “mRNA levels Apoe” value [3] was 1.522 multiples of 1×, the “mRNA levels IL1β” value [3] was 0.418 multiples of 1× and the “mRNA levels Lucif.” value [3] was 0.376 multiples of 1×. The “mRNA levels Spi1” value [3] was 1.001 multiples of 1×, the “mRNA levels Trem2” value [3] was 2.051 multiples of 1× and the “mRNA levels Tyrobp” value [3] was 2.101 multiples of 1×. For the same molecule, the “IC50 of myelin uptake” value (iPSC-microglia [4]) was “low nM range”, the “maximal possible reduction in myelin uptake” value (iPSC-microglia [4]) was 50% and the “supernatant IL1β levels, increase by IFNγ” value (iPS and ES-microglia [5]; 2-day IFNγ 25 ng/mL plus A11 20 nM, iPS and ES-microglia) was “reversed”. For the same molecule, the “IL1β concentration in the supernatant” value (iPS and ES-microglia [5]; A11 alone 20nM, 2-day treatment) was “did not affect”, the “CCL2 mRNA expression levels” value (iPSC-microglia [6]) was “reversal of IL1-beta and CCL2 increases to vehicle treated levels” and the “IL1-beta mRNA expression levels” value (iPSC-microglia [6]) was “reversal of IL1-beta and CCL2 increases to vehicle treated levels”. The “average cell size versus DPBS treatment” value (iPS and ES-microglia [7]) was “no effects”, the “cell viability (CellTiter Glo)” value (iPSC-microglia [8]; IFN-gamma 25 ng/mL 3 days, co-treated with A11 2.5 μM 2 days) was “No significant change” and the “IC50 of cell viability” value (iPSC-microglia [8]; [9]) was “low nM range”. For the same molecule, the “reduction in cell viability” value (iPSC-microglia [8]; [9]) was “weak reduction”.
